According to ChEMBL document CHEMBL1134154, “1-Alkyl-3-amino-5-aryl-1H-[1,2,4]triazoles: novel synthesis via cyclization of N-acyl-S-methylisothioureas with alkylhydrazines and their potent corticotropin-releasing factor-1 (CRF(1)) receptor antagonist activities” (Bioorg Med Chem Lett, 2001):

Legend:
[1] = biological target: T1, Corticotropin-releasing factor receptor 1 (Homo sapiens, UniProt P34998); assay: Inhibition of [125I]o-CRF binding to human Corticotropin releasing factor receptor 1 expressed in CHO cells.; assay type: cell-based
T1 sequence (P34998 whole entry): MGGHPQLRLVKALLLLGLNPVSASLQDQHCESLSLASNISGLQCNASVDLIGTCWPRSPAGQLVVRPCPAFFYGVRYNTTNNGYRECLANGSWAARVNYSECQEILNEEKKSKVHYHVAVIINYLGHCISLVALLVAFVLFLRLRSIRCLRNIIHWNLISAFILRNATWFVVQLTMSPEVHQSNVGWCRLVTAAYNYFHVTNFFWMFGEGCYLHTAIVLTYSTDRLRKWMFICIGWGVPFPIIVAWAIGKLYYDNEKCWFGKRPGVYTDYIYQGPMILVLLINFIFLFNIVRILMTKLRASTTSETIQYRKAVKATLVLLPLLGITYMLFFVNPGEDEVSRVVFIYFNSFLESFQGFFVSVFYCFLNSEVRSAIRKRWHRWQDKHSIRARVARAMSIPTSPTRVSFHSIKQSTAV

[2] = biological target: T1, Corticotropin-releasing factor receptor 1; assay: Binding affinity to cloned human Corticotropin releasing factor receptor 1 expressed in CHO cells using [125I]o-CRF as radioligand at 10 uM concentration; In activie; assay type: cell-based
[3] = biological target: T1, Corticotropin-releasing factor receptor 1; assay: Binding affinity to cloned human CRF1 receptor expressed in CHO cells using [125I]o-CRF as radioligand at 10 uM concentration; In activie; assay type: cell-based
[4] = biological target: T1, Corticotropin-releasing factor receptor 1; assay: Tested for in vivo activity and binding affinity to human Corticotropin releasing factor receptor 1; In activie
[5] = biological target: T2, Corticotropin-releasing factor receptor 1 (Homo sapiens) (UniProt P34998); assay: Binding affinity to cloned human Corticotropin releasing factor receptor 1 expressed in CHO cells using [125I]o-CRF as radioligand; assay type: cell-based; conditions: concentration not given here
T2 sequence (whole entry): T1 sequence (P34998 whole entry)

CCCN(c1nc(-c2ccc(Cl)cc2OC)n(C)n1)C(C1CC1)C1CC1
Ki [1]: 26 nM

CCCN(CCC)c1nc(-c2ccc(Cl)cc2Cl)n(C)n1
Ki [1]: 2600 nM

C=CCn1nc(N(CCC)C(C2CC2)C2CC2)nc1-c1c(C)cc(C)cc1C
Ki [1]: 2200 nM

CCCN(CC1CC1)c1n[nH]c(-c2cccc3cc(OC)ccc23)n1
Ki [2]: Not Active

CCCN(CC1CC1)c1nc(-c2ccc(Cl)cc2Cl)n(C)n1
Ki [1]: > 10000 nM

CCCN(c1nc(-c2ccc(Cl)cc2Cl)n(C)n1)C(C1CC1)C1CC1
Ki [1]: 9 nM

CCCN(c1nc(-c2c(C)cc(C)cc2C)n(C)n1)C(C1CC1)C1CC1
Ki [1]: 120 nM

CCCN(CCC)c1nc(-c2ccc(Cl)cc2Cl)n(CCO)n1
Ki [1]: 14 nM | Ki [3]: Not Active

CCCN(c1nc(-c2ccc(Cl)cc2Cl)n(CC)n1)C(C1CC1)C1CC1
Ki [1]: 80 nM

CCCN(c1nc(-c2c(C)cc(C)cc2C)n(CC)n1)C(C1CC1)C1CC1
Ki [1]: 310 nM

CCCN(c1nc(-c2cc(F)c(Cl)cc2Cl)n(C)n1)C(C1CC1)C1CC1
Ki [1]: 15 nM

CCCN(CC1CC1)c1nc(C)nc(Nc2c(Cl)cc(Cl)cc2Cl)c1Cl
Ki [4]: Not Active

CCCCN(CC)c1nc(C)nc2c1c(C)cn2-c1c(C)cc(C)cc1C [CP-154526]
Ki [4]: Not Active

CCCN(c1nc(-c2ccc(Cl)cc2C)n(C)n1)C(C1CC1)C1CC1
Ki [1]: 22 nM

C=CCn1nc(N(CCC)C(C2CC2)C2CC2)nc1-c1ccc(Cl)cc1Cl
inhibition [5]: 77%

CCCN(c1nc(-c2ccc(Cl)cc2)n(C)n1)C(C1CC1)C1CC1
Ki [1]: 33 nM

CCCN(c1nc(-c2ccc(Cl)cc2Cl)nn1C)C(C1CC1)C1CC1
Ki [1]: > 10000 nM

CCCN(CC1CC1)c1nc(-c2cccc3cc(OC)ccc23)n(C)n1
Ki [2]: Not Active

CCCN(CCC)c1n[nH]c(-c2ccc(Cl)cc2Cl)n1
Ki [2]: Not Active

CCCN(c1n[nH]c(-c2ccc(Cl)cc2Cl)n1)C(C1CC1)C1CC1
Ki [1]: 2400 nM

CCCN(c1nc(-c2ccc(Br)cc2C)n(C)n1)C(C1CC1)C1CC1
Ki [1]: 10 nM
